# Test: Human HepG2 cell viability assay in 384 well format
# Type: toxicity, cell-based
# Design: dose 125 nL, time 70.5 hour; concentration not given beside the values
# Conditions: HepG2 cells, read-out: Inhibition
smiles,measurement,value
CCOC1CC2(CCN(C(=O)COC)CC2)c2cc(C)ccc21 (stereo not given),cytotoxicity at 70.5 h,-9.53%
N#CCC(=O)NCc1nnc2n1CCN(Cc1ccsc1)C2,cytotoxicity at 70.5 h,9.84%
CC(=O)N1Cc2nccn2CC(CNC(=O)c2ccnnc2)C1 (stereo not given),cytotoxicity at 70.5 h,9.01%
CN(C)S(=O)(=O)N1C[C@H]2CCC[C@@]2(COCC2CCOCC2)C1,cytotoxicity at 70.5 h,9.65%
CCN1CC2(CC1=O)CN(C(=O)c1ccoc1)CCN(C(=O)N(C)C)C2 (stereo not given),cytotoxicity at 70.5 h,3.23%
CCN1CC2(CC1=O)CN(C(=O)c1ccsc1)CCN(C(=O)N(C)C)C2 (stereo not given),cytotoxicity at 70.5 h,3.77%
c1ccc(COC[C@H]2CC[C@H]3[C@H](CCN3Cc3ccco3)O2)nc1,cytotoxicity at 70.5 h,-6.26%
CN1Cc2c(C(=O)NCC3CCCO3)ncn2-c2ccccc2S1(=O)=O (stereo not given),cytotoxicity at 70.5 h,-0.787%
CCS(=O)(=O)N1CC[C@H]2[C@H]1CC(=O)N2Cc1csc(C)n1,cytotoxicity at 70.5 h,-1.34%
COc1nn(C)c2c1CCCN(C(=O)c1ccsc1)C2,cytotoxicity at 70.5 h,-108%
COCCC(=O)N1CCC2(CCCN2Cc2ccccc2)C1 (stereo not given),cytotoxicity at 70.5 h,-52.9%
COCCO[C@H]1CCN(C(=O)NC2CC2)[C@H]1Cc1cnn(C)c1,cytotoxicity at 70.5 h,-123%
CCC1=N[C@@]2(CC[C@@H]3CN(C(=O)Nc4ccccc4)C[C@@H]32)C(=O)N1CC,cytotoxicity at 70.5 h,-85.5%
CCN1C(=O)[C@]2(CC[C@@H]3CN(C(=O)Nc4ccc(F)cc4)C[C@@H]32)N=C1C,cytotoxicity at 70.5 h,-77.4%
CC1=N[C@@]2(CC[C@@H]3CN(C(=O)Nc4ccc(F)cc4)C[C@@H]32)C(=O)N1C,cytotoxicity at 70.5 h,-101%
CN1CCN(C(=O)c2cc(-c3cnc(N4CCCC4)nc3)cn2C)CC1,cytotoxicity at 70.5 h,-21.9%
Cn1cc(-c2cnc(N3CCOCC3)nc2)cc1C(=O)N1CCCC1,cytotoxicity at 70.5 h,-27.5%
c1cncc(CN2CCc3c(CNc4nccs4)n[nH]c3C2)c1,cytotoxicity at 70.5 h,-25%
C[C@@H]1C[C@@H]2CCN(C(=O)c3ccncn3)C[C@H]2O1,cytotoxicity at 70.5 h,-7.65%
COc1cc2cc(C(=O)NCCC(=O)O)n(C)c2c(OC)c1OC,cytotoxicity at 70.5 h,-4.76%
Cn1nc(C(=O)NCc2ccc(Cl)cc2)c2c1CCS(=O)(=O)C2,cytotoxicity at 70.5 h,2.61%
COc1ccccc1C(=O)Nc1c(F)c(C(=O)NC2CCCC2)nn1C,cytotoxicity at 70.5 h,-7.93%
CC(C)NC(=O)c1nn(C)c(NC(=O)Cc2ccccc2)c1F,cytotoxicity at 70.5 h,-11.4%
COc1ccccc1C(=O)Nc1c(F)c(C(=O)NCCC(C)C)nn1C,cytotoxicity at 70.5 h,25.3%
Cc1nc(N2CCCC2)ncc1-c1cc(O)nc(N2CCN(C)CC2)n1,cytotoxicity at 70.5 h,-2.96%
CCC1=NC(SCC(=O)c2ccc(C)cc2)c2cc(CC)sc2N1 (stereo not given),cytotoxicity at 70.5 h,-15.9%
CCC1=NC(SCC(=O)c2ccc(Cl)cc2)c2cc(CC)sc2N1 (stereo not given),cytotoxicity at 70.5 h,-11%
O=S(=O)(Nc1ccc(Oc2ccc3c(c2)OCO3)cc1)N1CCCCC1,cytotoxicity at 70.5 h,23%
Cn1ccnc1SCC(=O)NCc1ccc2c(c1)CCC(=O)N2,cytotoxicity at 70.5 h,2.79%
COc1ccc(C2=Nn3c(CCN)nnc3-c3ccccc3C2)cc1,cytotoxicity at 70.5 h,8.3%
COc1ccc(C2=Nn3c(CCCN)nnc3-c3ccccc3C2)cc1,cytotoxicity at 70.5 h,4.99%
O=C(NCc1ccco1)c1[nH]nc2c1CS(=O)(=O)CC2,cytotoxicity at 70.5 h,22.5%
CCn1ncc(CNc2[nH]cnc3nncc2-3)c1C,cytotoxicity at 70.5 h,-13.8%
Cc1nc2[nH]cnc(Nc3cnn(C)c3)c-2n1,cytotoxicity at 70.5 h,0.28%
Cc1nc2[nH]cnc(NCCCN3CCOCC3)c-2n1,cytotoxicity at 70.5 h,-6.34%
CC(Nc1ncnc2c1NC(=O)CN2)c1ccccn1 (stereo not given),cytotoxicity at 70.5 h,-13.6%
O=C1CNc2ncnc(Nc3cnn(Cc4ccccc4)c3)c2N1,cytotoxicity at 70.5 h,27%
O=C1CNc2ncnc(Nc3cnn(Cc4ccc(F)cc4)c3)c2N1,cytotoxicity at 70.5 h,-12.2%
CC(Nc1ncnc2c1NC(=O)CN2)c1ccc2c(c1)OCO2 (stereo not given),cytotoxicity at 70.5 h,-18.5%
O=C1CNc2ncnc(Nc3cccc(Cn4cccn4)c3)c2N1,cytotoxicity at 70.5 h,-6.61%
COc1ccccc1CNc1ncnc2c1NC(=O)CN2,cytotoxicity at 70.5 h,-6.12%
CC(C)c1noc(C2CCN(C(=O)C3CCCO3)CC2)n1 (stereo not given),cytotoxicity at 70.5 h,-11.9%
O=C1c2cnc(N3CCOCC3)nc2CN1Cc1cccc(F)c1,cytotoxicity at 70.5 h,-6.18%
CNc1ncc2c(n1)CN(C1CCCC1)C2=O,cytotoxicity at 70.5 h,-9.4%
CN(C)c1ncc2c(n1)CN(C1CCSCC1)C2=O,cytotoxicity at 70.5 h,22.1%
O=C1c2cnc(N3CCCCC3)nc2CN1c1ccc2c(c1)OCO2,cytotoxicity at 70.5 h,16.4%
CCCc1noc(C2CCCCN2C(=O)CCc2cnn(C)c2)n1 (stereo not given),cytotoxicity at 70.5 h,-0.695%
c1ccc2c(N3CCCCC3)cnnc2c1,cytotoxicity at 70.5 h,-6.45%
c1ccc2c(N3CCOCC3)cnnc2c1,cytotoxicity at 70.5 h,-8.59%
CNc1ncc2c(n1)CN(CCc1ccc(C)cc1)C2=O,cytotoxicity at 70.5 h,-3.63%
COc1ccc(N2Cc3nc(N)ncc3C2=O)cc1Cl,cytotoxicity at 70.5 h,-3.37%
COc1ccc(CCNC(=O)Cn2ncc3c2c(C)nn3C)cc1,cytotoxicity at 70.5 h,-12.7%
CCc1noc(C2CCCCN2C(=O)c2cc(C)on2)n1 (stereo not given),cytotoxicity at 70.5 h,-6.42%
CCn1nc(C)c2c1cnn2CC(=O)Nc1ccc(OC)cc1C,cytotoxicity at 70.5 h,-1.46%
CCC(C)NC(=O)Cn1ncc2c1c(C)nn2CC (stereo not given),cytotoxicity at 70.5 h,22.8%
Cc1nn(C)c2cn(CC(=O)N3CCN(c4ccccn4)CC3)nc12,cytotoxicity at 70.5 h,5.73%
COc1ccccc1CNC(=O)C(C)n1cc2c(n1)c(C)nn2C (stereo not given),cytotoxicity at 70.5 h,-6.09%
CCN(CC)c1nc(Nc2cccc(C(=O)O)c2)nc2ccccc12,cytotoxicity at 70.5 h,-11.2%
COc1ccc(CNc2cc3[nH]c(O)nc3cc2C)cc1,cytotoxicity at 70.5 h,-5.05%
Cc1nc(N2CCC(C)CC2)ncc1-c1cc(O)nc(N2CCCC2)n1,cytotoxicity at 70.5 h,1.46%
CC(C)CN1Cc2nc(N)ncc2C1=O,cytotoxicity at 70.5 h,-10.7%
COc1ccc(N2Cc3nc(N4CCCC4)ncc3C2=O)cc1Cl,cytotoxicity at 70.5 h,1.18%
Cc1ccccc1CNC(=O)Cn1ncc2c1c(C)nn2C,cytotoxicity at 70.5 h,-9.91%
Clc1ccc2nncc(N3CCCCC3)c2c1,cytotoxicity at 70.5 h,-10.7%
CCN1CCCC(O)(CNCc2ccc3c(c2)OCO3)C1 (stereo not given),cytotoxicity at 70.5 h,-10.3%
O=C(N[C@@H]1CN[C@H]2CCCO[C@H]21)c1cnccn1,cytotoxicity at 70.5 h,-0.404%
c1c(CN2CCCCC2)nc2n1CCNC2,cytotoxicity at 70.5 h,8.55%
Cc1cccc(CN2CC3C[C@]3(NC(=O)c3cccc(F)c3)C2)n1 (stereo not given in full),cytotoxicity at 70.5 h,-12.2%
O=C(c1ccncc1F)N1C[C@@H]2OCCN(CC3CC3)[C@@H]2C1,cytotoxicity at 70.5 h,-12.9%
Cc1cc(C(=O)N2C[C@@H]3COC[C@]3(CN(C)C)C2)sc1C,cytotoxicity at 70.5 h,-11.8%
O=C(c1nc2c(o1)CN(CC1CCC1)C2)N1CCCC1,cytotoxicity at 70.5 h,10.5%
Cc1nc(CN2C(=O)C[C@@H]3[C@@H]2CCN3CC2CCOCC2)cs1,cytotoxicity at 70.5 h,23.6%
CN1Cc2c(C(=O)NC3CCCCC3)ncn2-c2ccccc2S1(=O)=O,cytotoxicity at 70.5 h,2.35%
COC[C@H]1CC[C@@H]2[C@@H](CCN2Cc2ccco2)O1,cytotoxicity at 70.5 h,20.4%
Cc1cccc(CN2CCc3ncnc(N4CCCC4)c3CC2)n1,cytotoxicity at 70.5 h,-2.78%
O=C(NC[C@H]1OC[C@@H]2CCN(Cc3ccco3)C[C@@H]21)c1ccnnc1,cytotoxicity at 70.5 h,-1.68%
c1ccc(CN2CCc3ncnc(C4CC4)c3CC2)cc1,cytotoxicity at 70.5 h,26.7%
CN1CCN(C(=O)c2ncn3c2CN(C)S(=O)(=O)c2ccccc2-3)CC1,cytotoxicity at 70.5 h,1.76%
CC(C)NC(=O)N1CCCn2cnc(CO)c2C1,cytotoxicity at 70.5 h,6.26%
CCc1ncnc2c1CCN(Cc1ccc3c(c1)OCO3)CC2,cytotoxicity at 70.5 h,4.52%
Cc1nc(CN2C(=O)C[C@H]3[C@H]2CCN3CC2CCOC2)cs1 (stereo not given in full),cytotoxicity at 70.5 h,2.38%
CN(C(=O)c1ncn2c1CN(C)S(=O)(=O)c1ccccc1-2)C1CC1,cytotoxicity at 70.5 h,-3.76%
CC(C)C(C)NC(=O)c1ncn2c1CN(C)S(=O)(=O)c1ccccc1-2 (stereo not given),cytotoxicity at 70.5 h,-2.58%
Cn1cc(CN2CC[C@H]3O[C@H](C(=O)Nc4cnccn4)CC[C@H]32)cn1,cytotoxicity at 70.5 h,29.6%
Cc1nc(CN2C(=O)C[C@H]3[C@H]2CCN3C2CCOC2)cs1 (stereo not given in full),cytotoxicity at 70.5 h,28.1%
O=C(COC[C@H]1CC[C@H]2[C@H](CCN2c2ccccn2)O1)N1CCCC1,cytotoxicity at 70.5 h,-111%
CCS(=O)(=O)N1CCC2(CN(c3ccsc3)C(=O)CN2C)C1 (stereo not given),cytotoxicity at 70.5 h,-124%
Cc1cnc(N2CC[C@@H]3OC(COCC(=O)N(C)C)CC[C@@H]32)nc1 (stereo not given in full),cytotoxicity at 70.5 h,-117%
c1cnc(NCc2nnn3c2CN(Cc2ccsc2)CCC3)nc1,cytotoxicity at 70.5 h,-118%
Cc1nc(CN2CCOCC3(CCN(c4ncccn4)CC3)C2)cs1,cytotoxicity at 70.5 h,-97.5%
c1cncc(N2CC[C@@H]3CN(CC4CC4)C[C@@H]3C2)c1,cytotoxicity at 70.5 h,-26.1%
O=C1COC2(CCN(Cc3ccoc3)CC2)CN1,cytotoxicity at 70.5 h,-30.5%
CCOCC1CN(Cc2ccoc2)Cc2nn(C)cc21 (stereo not given),cytotoxicity at 70.5 h,-4.9%
O=C(C1CCOCC1)N1CCO[C@H]2[C@H](OCc3ccncc3)CC[C@@H]21,cytotoxicity at 70.5 h,-9.92%
CCN1CC[C@@]2(C(=O)Nc3ccccc3)CCN(S(C)(=O)=O)CC[C@@H]12,cytotoxicity at 70.5 h,-17.9%
Cc1cccc(CN2CC[C@H]3[C@H]2CCN3C(=O)c2cnn(C)c2)n1,cytotoxicity at 70.5 h,2.83%
Cn1cc(CN2CC[C@@H]3[C@@H](CO[C@H]3CNC(=O)c3ccco3)C2)cn1,cytotoxicity at 70.5 h,-3.28%
Cc1cccc(CN2CC[C@H]3O[C@H](C(=O)Nc4cnccn4)CC[C@H]32)n1,cytotoxicity at 70.5 h,1.13%
Cc1cccc(CN2CCc3ncnc(NC4CCC4)c3CC2)n1,cytotoxicity at 70.5 h,5.7%
O=c1ccc2c(n1Cc1cccnc1)CCN(Cc1ccoc1)CC2,cytotoxicity at 70.5 h,4.28%
Cc1nc(CN2CCOCC3(CCN(c4ccccn4)C3)C2)cs1 (stereo not given),cytotoxicity at 70.5 h,-40.4%
C1CCN(CCO[C@@H]2CC[C@H]3[C@H]2OCCN3CC2CCOCC2)C1,cytotoxicity at 70.5 h,-120%
COCC1c2c(cnn2C)CCN1Cc1ccco1 (stereo not given),cytotoxicity at 70.5 h,-0.607%
O=C1COC2(CCN(Cc3ccncc3)CC2)CN1,cytotoxicity at 70.5 h,-11.9%
CC(C)N(C)Cc1nnn2c1CN(Cc1cccnc1)CCC2,cytotoxicity at 70.5 h,-101%
c1cncc(CN2CCCn3nnc(CN4CCCC4)c3C2)c1,cytotoxicity at 70.5 h,-64.2%
OCCN1CCC2(CC1)CC(NCc1ccccn1)c1ccccc1O2 (stereo not given),cytotoxicity at 70.5 h,-0.919%
CC(C)N1CCC2(CC1)CC(NCc1ccccn1)c1ccccc1O2 (stereo not given),cytotoxicity at 70.5 h,-0.344%
CCN1CCC2(CC1)CC(NCc1cccc(C)n1)c1ccccc1O2 (stereo not given),cytotoxicity at 70.5 h,-16.9%
CCN1CCC2(CC1)CC(NCc1ccncc1)c1ccccc1O2 (stereo not given),cytotoxicity at 70.5 h,-20.8%

# Source: ChEMBL document CHEMBL3507680, “University of Dundee, Gates Library screen for HepG2 cell viability”
